System: gut microbiome
Experiment: Microbial 16S rDNA analysis of fecal samples
Assay type: in vivo, mice
Conditions: 38 mg/day hCol1 or glucosamine, FIG. 10C
Procedure: FIGS. 10A-10C: hCol1 supplementation induces significant change in the gut microbiome. Microbial rDNA analysis was performed on fecal samples collected from lean and obese mice supplemented with control Nutella, 38 mg/day hCol1, or glucosamine. […] FIG. 10A: Principal coordinate analysis of microbial abundance from obese control Nutella (1), obese glucosamine (2), obese hCol1 (3), lean hCol1 (4), lean glucosamine (5) and lean control Nutella (6) mice. […] FIGS. 15A-15G: hCol1 and hCol2 supplementation induces significant change in the gut microbiome and provides protective effects in post-traumatic osteoarthritis. (FIG. 15A) Microbial rDNA analysis was performed on fecal samples collected from chow fed mice supplemented with control Nutella, 38 mg/day hCol1, or 15 mg/day hCol2 for 4 weeks. Bars show relative microbial abundance in the indicated groups. Each bar represents an average of 3 mice. In the chow diet, hCol 1 and 2 tended to have similar effects: Increases in the abundance of Bacteroidales, Lactobacillales, Turicibacterales, and Anaeroplasmatales. […] Panels depicting the tibia uncalcified cartilage area (FIG. 15B), the number of chondrocytes in the tibia uncalcified cartilage (FIG. 15C), the number (FIG. 15D) and percentage (FIG. 15E) of Safranin-O positive (SafO^+) chondrocytes in the tibia uncalcified cartilage, the femur uncalcified cartilage area (FIG. 15F), and the number of chondrocytes in the femur uncalcified cartilage (FIG. 15G) in Sham and DMM chow fed mice supplemented with vehicle (Nutella) (Control DMM), hCol1 (P1 DMM) or hCol2 (P2 DMM) at 12 weeks after injury. FIGS. 16A-16E: (FIG. 16A) Microbial rDNA analysis was performed on fecal samples collected from lean fed mice supplemented with control Nutella, 38 mg/day hCol1, or 15 mg/day hCol2. Bars show relative microbial abundance in the indicated groups. […] Panels depicting the tibia cartilage area (FIG. 16B), the tibia uncalcified cartilage area (FIG. 16C), the number of chondrocytes in the tibia uncalcified cartilage (FIG. 16D), and the percentage (FIG. 16E) of Safranin-O positive (SafO^+) chondrocytes in the tibia uncalcified cartilage in Sham and DMM lean fed mice supplemented with vehicle (Nutella) (Control DMM), hCol1 (P1 DMM) or hCol2 (P2 DMM) at 12 weeks after injury. FIG. 17A-17H: (FIG. 17A) Microbial rDNA analysis was performed on fecal samples collected from high fat (HF) (60% of caloric energy from saturated fat) fed mice supplemented with control Nutella, 38 mg/day hCol1, or 15 mg/day hCol2 for 4 weeks. Bars show relative microbial abundance in the indicated groups. […] Panels depicting the tibia cartilage area (FIG. 17B), the tibia uncalcified cartilage area (FIG. 17C), the number of chondrocytes in the tibia uncalcified cartilage (FIG. 17D), the number of Safranin-O positive (SafO^+) chondrocytes in the tibia uncalcified cartilage (FIG. 17E), the femur uncalcified cartilage area (FIG. 17F), the number of chondrocytes in the femur uncalcified cartilage (FIG. 17G), and the number of Safranin-O positive (SafO^+) chondrocytes in the femur uncalcified cartilage (FIG. 17H) in Sham and DMM high fat diet-fed mice supplemented with vehicle (Nutella) (Control DMM), hCol1 (P1 DMM) or hCol2 (P2 DMM) at 3 weeks after injury. FIG. 19: hCol2 alters the gut microbiome. Mice fed chow or high fat diet for 3 months were supplemented daily with hCol2 (HFD+hCol2) or vehicle (Nutella) (HFD) for 4 weeks. Fecal samples were collected and microbial rDNA analysis was performed. A subset of bacterial species was altered in high fat diet-fed mice compared to chow fed mice, and hCol2 supplementation changed the gut microbiome of these high fat diet-fed mice. Numerous proinflammatory species, particularly Peptococcaceae rc4-4 sp, were reduced in hCol2-supplemented mice (top heat map). Conversely, several anti-inflammatory species were enhanced in hCol2-supplemented animals, including Bifidobacterium pseudolongum (bottom heat map). […]

Q: Which results are given for `N[C@H]1C(O)O[C@H](CO)[C@@H](O)[C@@H]1O` (some centres unmarked) [glucosamine]?
A: relative microbial abundance: Actinobacteria (lean mice): 12.07%; relative microbial abundance: Bacteroidetes (lean mice): 13.4103%; relative microbial abundance: Firmicutes (lean mice): 72.6939%; relative microbial abundance: Tenericutes (lean mice): 1.1749%; relative microbial abundance: Verrucomicrobia (lean mice): 0.0119%; relative microbial abundance: Actinobacteria (lean mice, listed as Glucosamine): 12.7091%; relative microbial abundance: Actinobacteria (obese mice): 0.4928%; relative microbial abundance: Bacteroidetes (obese mice): 11.2335%; relative microbial abundance: Firmicutes (obese mice): 88.0274%; relative microbial abundance: Proteobacteria (obese mice): 0.0005%; relative microbial abundance: Verrucomicrobia (obese mice): 0.2458%

— US11110147B2, “Collagen hydrolysates as a beneficial prebiotic and their effect on joint inflammation and osteoarthritis” (ROUSSELOT B.V., priority 2017, dated 2021)
